As a reminder, the IC50 is the point on the concentration scale where inhibition reaches its midpoint.

One assay concerns the target T1, BRD2 (BD1) (Homo sapiens, UniProt P25440).
T1 construct: 100 nM GST-BRD2 (BD1, BD2, BD1+BD2)
The experiment in a line: AlphaScreen binding inhibition of GST-BRD2 (BD1) and tetraacetylated histone H4 peptide. The note with it: for IC50: AlphaScreen, acetyl-histone H4 peptide. On the technique in general: In Alpha technology, singlet oxygen from a donor bead excites a nearby acceptor bead.

A further assay addresses T2, BRD2 (BD1 + BD2) (Homo sapiens, UniProt P25440).
T2 construct: 100 nM GST-BRD2 (BD1, BD2, BD1+BD2)
The experiment in a line: AlphaScreen binding inhibition of GST-BRD2 (BD1+BD2) and tetraacetylated histone H4 peptide.

For another assay, the target named is T3, BRD3 (BD1 + BD2) (Homo sapiens, UniProt Q15059).
T3 construct: on the BRD3 (BD1, BD2, BD1+BD2) protein; GST
The assay can be described thus: Binding inhibition of BRD3 (BD1+BD2), same manner as Test Example 1. The note with it: AlphaScreen, acetyl-histone H4 peptide.

In another assay the target is T4, BRD4 (BD1 + BD2) (Homo sapiens, UniProt O60885).
T4 construct: on the BRD4 (BD1, BD2, BD1+BD2) protein; GST
The experiment in a line: Binding inhibition of BRD4 (BD1+BD2), same manner as Test Example 1. The following applies: AlphaScreen, acetyl-histone H4 peptide.

Another assay has as its target T5, BRD4 (BD1) (Homo sapiens, UniProt O60885).
T5 construct: on the BRD4 (BD1, BD2, BD1+BD2) protein; GST
The assay can be described thus: Binding inhibition of BRD4 (BD1), same manner as Test Example 1. The following applies: AlphaScreen, acetyl-histone H4 peptide.

The next assay deals with T6, BRD2 (BD2) (Homo sapiens, UniProt P25440).
T6 construct: 100 nM GST-BRD2 (BD1, BD2, BD1+BD2)
The experiment in a line: AlphaScreen binding inhibition of GST-BRD2 (BD2) and tetraacetylated histone H4 peptide. The note with it: acetyl-histone H4 peptide.

The next assay has as its target T7, BRD3 (BD1) (Homo sapiens, UniProt Q15059).
T7 construct: on the BRD3 (BD1, BD2, BD1+BD2) protein; GST
The experiment in a line: Binding inhibition of BRD3 (BD1), same manner as Test Example 1. The following applies: AlphaScreen, acetyl-histone H4 peptide.

The target in the next assay is T8, BRD3 (BD2) (Homo sapiens, UniProt Q15059).
T8 construct: on the BRD3 (BD1, BD2, BD1+BD2) protein; GST
The assay can be described thus: Binding inhibition of BRD3 (BD2), same manner as Test Example 1. The following applies: AlphaScreen, acetyl-histone H4 peptide.

T3 sequence (Q15059 34-415 limits assumed): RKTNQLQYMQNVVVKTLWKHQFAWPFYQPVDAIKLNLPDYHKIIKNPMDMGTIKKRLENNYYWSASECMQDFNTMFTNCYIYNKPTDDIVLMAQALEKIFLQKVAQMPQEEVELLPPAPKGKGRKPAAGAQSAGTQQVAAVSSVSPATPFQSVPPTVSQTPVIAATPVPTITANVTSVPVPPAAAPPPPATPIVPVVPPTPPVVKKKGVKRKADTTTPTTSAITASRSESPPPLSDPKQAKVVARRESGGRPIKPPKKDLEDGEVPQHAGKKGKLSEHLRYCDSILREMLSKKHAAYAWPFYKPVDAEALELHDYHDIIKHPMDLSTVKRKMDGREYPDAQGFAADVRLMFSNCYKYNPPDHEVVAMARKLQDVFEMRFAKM
T6 sequence (P25440 344-453 limits assumed): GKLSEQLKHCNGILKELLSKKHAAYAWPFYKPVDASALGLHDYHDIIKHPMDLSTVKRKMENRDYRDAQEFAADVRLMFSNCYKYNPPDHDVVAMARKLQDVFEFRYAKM
T1 sequence (P25440 74-180 limits assumed): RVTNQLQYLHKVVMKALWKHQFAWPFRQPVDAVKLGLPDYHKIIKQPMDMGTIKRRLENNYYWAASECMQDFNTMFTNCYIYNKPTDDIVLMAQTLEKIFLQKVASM
T7 sequence (Q15059 34-140 limits assumed): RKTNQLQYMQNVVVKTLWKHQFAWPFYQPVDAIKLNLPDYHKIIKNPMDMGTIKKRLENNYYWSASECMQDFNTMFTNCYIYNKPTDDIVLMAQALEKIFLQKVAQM
T2 sequence (P25440 74-453 limits assumed): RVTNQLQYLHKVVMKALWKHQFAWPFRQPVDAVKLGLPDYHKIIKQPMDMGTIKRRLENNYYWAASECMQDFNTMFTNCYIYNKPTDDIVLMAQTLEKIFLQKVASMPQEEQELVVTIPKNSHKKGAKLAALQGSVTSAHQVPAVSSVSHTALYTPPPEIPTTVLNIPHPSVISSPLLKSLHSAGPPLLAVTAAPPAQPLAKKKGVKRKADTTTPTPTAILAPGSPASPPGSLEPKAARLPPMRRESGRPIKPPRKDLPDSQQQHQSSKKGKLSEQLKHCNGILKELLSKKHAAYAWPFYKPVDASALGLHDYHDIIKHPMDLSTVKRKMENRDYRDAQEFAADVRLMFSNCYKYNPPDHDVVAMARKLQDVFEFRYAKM
T8 sequence (Q15059 306-415 limits assumed): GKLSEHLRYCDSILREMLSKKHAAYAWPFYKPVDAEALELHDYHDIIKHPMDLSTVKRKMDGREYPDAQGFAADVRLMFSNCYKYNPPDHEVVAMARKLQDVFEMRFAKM

`O=c1c(O)c(-c2ccc(O)c(O)c2)oc2cccc(O)c12` [BBC0104, 2-(3,4-dihydroxyphenyl)-3,5-dihydroxy-chromen-4-one]: the IC50 on BRD2 (BD1) stood at 8.52 µM.

As to `O=c1c(O)c(-c2ccc(O)c(O)c2)oc2cc(O)ccc12` [BBC0105, 2-(3,4-dihydroxyphenyl)-3,7-dihydroxy-chromen-4-one], at BRD2 (BD1), the IC50 stood at 8.88 µM.

Regarding `O=c1c(O)c(-c2ccc3[nH]cnc3c2)oc2cc(O)cc(O)c12` [BBC0109, 2-(1H-benzodiimidazol-5-yl)-3,5,7-trihydroxy-4H-chromen-4-one], the concentration for half-maximal inhibition (IC50) on BRD2 (BD1) was found to be 8.63 µM; on BRD2 (BD1 + BD2) (AlphaScreen, acetyl-histone H4 peptide), 9.7 µM; at BRD3 (BD1 + BD2), 20.8 µM; on BRD4 (BD1 + BD2), 15.6 µM. In addition, on BRD2 (BD1) (relative to RVX-208), the “IC50 value of BRD2 (BD1) as compared to the compound of Comparative Example 1” value is listed as “about 30%”. For the same compound, on BRD2 (BD1 + BD2) (relative to RVX-208), the “IC50 value of BRD2 (BD1+BD2) as compared to the compound of Comparative Example 1” value is listed as “about 30%”.

For the compound `O=c1[nH]c2ccc(-c3oc4cc(O)cc(O)c4c(=O)c3O)cc2[nH]1` [BBC0110, 5-(3,5,7-trihydroxy-4-oxo-chromen-2-yl)-1,3-dihydrobenzimidazol-2-one], the IC50 on BRD2 (BD1) was 9.06 µM; at BRD3 (BD1 + BD2), 20.1 µM; at BRD4 (BD1), 15.5 µM; on BRD4 (BD1 + BD2) it was 38.6 µM.

Take `O=c1[nH]c2ccc(-c3oc4cc(O)cc(O)c4c(=O)c3O)cc2o1` [BBC0113, 6-(3,5,7-trihydroxy-4-oxo-chromen-2-yl)-3H-1,3-benzoxazol-2-one]: the values for the concentration for half-maximal inhibition (IC50) at BRD2 (BD1), at BRD2 (BD2) and at BRD3 (BD1) were 12.2 µM, 5.11 µM and 17.1 µM, respectively.

Turning to `O=c1c(O)c(-c2ccc3[nH]ccc3c2)oc2cc(O)cc(O)c12` [BBC0114, 3,5,7-trihydroxy-2-(1H-indol-5-yl)chromen-4-one], the 50% inhibitory concentration (IC50) at BRD2 (BD1) is 4.14 µM; at BRD3 (BD1) it was 7.98 µM; at BRD3 (BD1 + BD2) it was 51.3 µM.

Turning to `O=c1c(O)c(-c2ccc3cc[nH]c3c2)oc2cc(O)cc(O)c12` [BBC0115, 3,5,7-trihydroxy-2-(1H-indol-6-yl)chromen-4-one], the IC50 on BRD2 (BD1) was determined as 5.24 µM; at BRD3 (BD1), 7.18 µM; at BRD3 (BD1 + BD2) it was 86 µM.

In the case of `COc1cc(OC)c2c(=O)[nH]c(-c3cc(C)c(OCCO)c(C)c3)cc2c1` [BBC0204, reference compound], the half-inhibitory concentration (IC50) on BRD4 (BD1) was found to be 35.1 µM; at BRD4 (BD1 + BD2), 97.2 µM.

As to `COc1cc(OC)c2[nH]c(-c3cc(C)c(OCCO)c(C)c3)nc2c1` [BBC0206, reference compound], the IC50 is more than 50 µM on BRD4 (BD1) and more than 20 µM on BRD4 (BD1 + BD2).

As to `O=c1c(O)c(-c2ccc(OC3COC3)c(O)c2)oc2cc(O)cc(O)c12` [BBC0301, 3,5,7-trihydroxy-2-[13-hydroxy-4-(oxetan-3-yloxy)phenyl]chromen-4-one], the IC50 at BRD2 (BD1) came out at 16.9 µM; on BRD3 (BD1 + BD2) it was 29.4 µM; on BRD4 (BD1 + BD2), 30.3 µM.

`O=c1c(O)c(-c2ccc(OC3COC3)cc2)oc2cc(O)cc(O)c12` [BBC0302, 3,5,7-trihydroxy-2-[4-(oxetan-3-yloxy)phenyl]chromen-4-one] registered an IC50 at BRD2 (BD1) of 2.4 µM.

For `O=c1c(O)c(-c2ccc(O)c(OC3COC3)c2)oc2cc(O)cc(O)c12` [BBC0303, 3,5,7-trihydroxy-2-[4-hydroxy-3-(oxetan-3-yloxy)phenyl]chromen-4-one], the IC50 on BRD2 (BD1) was determined as 8.35 µM; on BRD3 (BD1), 3.18 µM; at BRD3 (BD1 + BD2), 95.6 µM.

In the case of `Cc1cc(-c2oc3cc(O)cc(O)c3c(=O)c2O)cc(O)c1OC1COC1` [BBC0305, 3,5,7-trihydroxy-2-[3-hydroxy-5-methyl-4-(oxetan-3-yloxy)phenyl]chromen-4-one], the figures for the IC50 at BRD2 (BD1) and at BRD3 (BD1) were 6.55 µM and 3 µM, respectively.

With `Cc1cc(-c2oc3cc(O)cc(O)c3c(=O)c2O)cc(C)c1OC1COC1` [BBC0306, 2-[3,5-dimethyl-4-(oxetan-3-yloxy)phenyl]-3,5,7-trihydroxy-chromen-4-one], the half-maximal inhibitory concentration (IC50) turned out to be 2.71 µM on BRD2 (BD1), 1.41 µM on BRD3 (BD1) and 1.34 µM on BRD3 (BD2).

For `Cc1cc(-c2oc3cc(O)cc(O)c3c(=O)c2O)cc(OC2COC2)c1O` [BBC0307], the figures for the IC50 on BRD2 (BD1), at BRD3 (BD1) and at BRD4 (BD1 + BD2) were 18.5 µM, 9.29 µM and 87.3 µM, respectively.

Regarding `O=c1c(O)c(-c2ccc3c(c2)CCCO3)oc2cc(O)cc(O)c12` [BBC0309], the IC50 was 7.03 µM on BRD2 (BD1) and 1.46 µM on BRD3 (BD1).

With `O=c1c(O)c(-c2ccc3occc3c2)oc2cc(O)cc(O)c12` [BBC0310, 2-(benzofuran-5-yl)-3,5,7-trihydroxy-chromen-4-one], the figures for the IC50 at BRD2 (BD1) and at BRD3 (BD1) were 10.1 µM and 3.26 µM, respectively.

On to `O=c1c(O)c(-c2ccc3c(c2)CCO3)oc2cc(O)cc(O)c12` [BBC0311, 2-(2,3-dihydrobenzofuran-5-yl)-3,5,7-trihydroxy-chromen-4-one], for which the concentration for half-maximal inhibition (IC50) came to 5.85 µM at BRD2 (BD1), 3.79 µM on BRD2 (BD2) and 7.2 µM at BRD3 (BD1).

As to `O=c1c(O)c(-c2ccc3c(c2)OCC3)oc2cc(O)cc(O)c12` [BBC0312, 2-(2,3-dihydrobenzofuran-6-yl)-3,5,7-trihydroxy-chromen-4-one], the figures for the IC50 at BRD2 (BD1) and on BRD3 (BD1) were 3.69 µM and 2.64 µM, respectively.

As to `O=c1c(O)c(-c2ccc3ccoc3c2)oc2cc(O)cc(O)c12` [BBC0313, 2-(benzofuran-6-yl)-3,5,7-trihydroxy-chromen-4-one], the IC50 is 4.63 µM at BRD2 (BD1), 0.499 µM on BRD2 (BD2) and 1.9 µM at BRD3 (BD1).

Compound `COc1cc(OC)c2c(=O)[nH]c(-c3cc(C)c4c(c3)CCO4)nc2c1` [BBC0406, 5,7-dimethoxy-2-(7-methyl-2,3-dihydrobenzofuran-5-yl)-3H-quinazolin-4-one] displayed a half-maximal inhibitory concentration (IC50) on BRD3 (BD1) of 11.1 µM.

These data come from patent publication US20230053152A1, “Novel Quercetin Redox Derivative And Use Thereof As BET Inhibitor” (Benobio Co., Ltd., priority 2019, published 2023).
